# From US20220197161A1, “ELECTROPHOTOGRAPHIC PHOTOCONDUCTOR, METHOD OF MANUFACTURING THE SAME, AND ELECTROPHOTOGRAPHIC EQUIPMENT” (FUJI ELECTRIC CO., LTD., priority 2020, published 2022)
# Assay: solubility SETM (THF): mass of tetrahydrofuran required to dissolve 1 g of the azoquinone derivative
# Type: physicochemical
# Conditions: mass (g) of tetrahydrofuran required to dissolve 1 g of the azoquinone derivative
# Excerpt: The solubility SETM (THF) of the azoquinone derivative having a structure represented by the general formula (ET1) (the mass (g) of tetrahydrofuran required to dissolve 1 g of the azoquinone derivative) preferably satisfies the following inequality:
# For the azoquinone derivative having a structure represented by the general formula (ET1) in a preferred embodiment, the solubility SETM (THF), as represented by the mass (g) of tetrahydrofuran required to dissolve 1 g of the electron transport materials), of the electron transport materials also satisfies the following inequality:
# The solubility SETM (THF) of the azoquinone derivative, as represented by the mass (g) of tetrahydrofuran required to dissolve 1 g of the azoquinone derivative having a structure represented by the above structural formula (ET1-4)), was 1 (g).
row,Structure (SMILES),solubility SETM (THF)
1,CC(C)(C)C1=CC(=CN=Nc2c(Cl)cccc2Cl)C=C(C(C)(C)C)C1=O [ET1-3],≤ 1 g
2,CC(C)(C)C1=CC(=CN=Nc2cc(Cl)ccc2Cl)C=C(C(C)(C)C)C1=O [ET1-4],1 g
3,CC(C)(C)C1=CC(=CN=Nc2c(Cl)cc(Cl)cc2Cl)C=C(C(C)(C)C)C1=O [ET1-5],1 g
4,CC(C)(C)C1=CC(=CN=Nc2ccc(Cl)cc2)C=C(C(C)(C)C)C1=O [ET-1],3 g
5,CC(C)(C)C1=CC(=CN=Nc2ccc(F)cc2F)C=C(C(C)(C)C)C1=O [ET-2],15 g
6,CC(C)(C)C1=CC(=CN=Nc2c(F)c(F)c(F)c(F)c2F)C=C(C(C)(C)C)C1=O [ET-3],22 g
